From ChEMBL document CHEMBL1134854, “Synthesis and biological evaluation of N-(7-indolyl)-3-pyridinesulfonamide derivatives as potent antitumor agents” (Bioorg Med Chem Lett, 2002)
Several values for one entry are separate records, joined by “and”; a condition that tells them apart may be missing. Equal values may be shown once.

How the values were obtained:
Colon cancer cell line [1] = assay: In vivo activity as average tumor weight on day 22/average tumor weight in control group on day 22*100; drug administered intraperitoneal; assay type: functional, Homo sapiens
Colon cancer cell line [2] = assay: In vivo activity as average tumor volume on day 9/average tumor volume on day 1; drug administered intraperitoneal; assay type: functional, Homo sapiens
HCT-116 = assay: Inhibitory concentration in vitro against HCT116 human colon cancer cells were determined for 72 h; assay type: functional, cell-based; conditions: HCT-116, 72 h
Mus musculus = organism: Mus musculus; assay: Number of deaths per total number of aminals tested; 0/5; assay type: functional
Colon cancer cell line [3] = assay: In vivo activity as average tumor weight on day 22/average tumor weight in control group on day 22*100; drug administered per oral; assay type: functional, Homo sapiens
Colon cancer cell line [4] = assay: In vivo activity as average tumor volume on day 9/average tumor volume on day 1; drug administered per oral; assay type: functional, Homo sapiens
Colon cancer cell line [5] = assay: In vivo activity as average tumor volume on day 9/average tumor volume on day 1; drug administered intra venously; assay type: functional, Homo sapiens
Colon cancer cell line [6] = assay: In vivo activity as average tumor weight on day 22/average tumor weight in control group on day 22*100; drug administered intra venously; assay type: functional, Homo sapiens
Colon cancer cell line [7] = assay: In vivo activity as average tumor volume on day 9/average tumor volume on day 1 drug administered per oral; assay type: functional, Homo sapiens

| SMILES | Day 22-T/C (Colon cancer cell line [1]) | Day 9-RTV (Colon cancer cell line [2]) | IC50 (HCT-116) | Deaths/total (Mus musculus) | Day 22-T/C (Colon cancer cell line [3]) | Day 9-RTV (Colon cancer cell line [4]) | Day 9-RTV (Colon cancer cell line [5]) | Day 22-T/C (Colon cancer cell line [6]) | Day 9-RTV (Colon cancer cell line [7]) |
| --- | --- | --- | --- | --- | --- | --- | --- | --- | --- |
| O=S(=O)(Nc1cccc2c(Cl)c[nH]c12)c1cccnc1 | 70% | 3.4 | 260 nM | 0% |  |  |  |  |  |
| Cc1cncc(S(=O)(=O)Nc2cccc3c(C#N)c[nH]c23)c1 | 30% | 0.52 | 190 nM | 0% | 106% | 3.4 |  |  |  |
| O=S(=O)(Nc1cccc2c(Cl)c[nH]c12)c1ccc(NCCO)nc1 | 89% | 4.3 | 650 nM | 0% |  |  |  |  |  |
| NS(=O)(=O)c1ccc(S(=O)(=O)Nc2cccc3c(Cl)c[nH]c23)cn1 | 12% and 23% | 0.1 and 0.29 | 290 nM | 0% |  |  | 0.15 | 8% |  |
| O=S(=O)(Nc1cccc2c(Cl)c[nH]c12)c1ccc(O)nc1 | 66% | 3 | 800 nM | 0% |  |  |  |  |  |
| N#Cc1c[nH]c2c(NS(=O)(=O)c3cccnc3)cccc12 | 65% | 2.6 | 230 nM | 0% |  |  |  |  |  |
| CNc1ccc(S(=O)(=O)Nc2cccc3c(Cl)c[nH]c23)cn1 | 38% | 0.24 | 860 nM | 0% |  |  |  |  |  |
| Cc1cncc(S(=O)(=O)Nc2cccc3c(Cl)c[nH]c23)c1 | 82% | 3.7 | 220 nM | 0% |  |  |  |  |  |
| N#Cc1c[nH]c2c(NS(=O)(=O)c3ccc(N)nc3)cccc12 | 35% | 1.5 | 640 nM | 0% | 75% |  |  |  | 2.3 |
| Nc1ccc(S(=O)(=O)Nc2cccc3c(Cl)c[nH]c23)cn1 | 26% | 0.3 | 710 nM | 0% | 12% | 0.19 |  |  |  |
| CC(C)Nc1ccc(S(=O)(=O)Nc2cccc3c(Cl)c[nH]c23)cn1 |  | 0.28 and 0.9 | 1300 nM | 0% |  |  |  |  |  |
